Values joined by “and” are separate entries in the source; they are usually repeats but may differ in a detail not shown here. Equal entries are not always repeated. Blank lines part the entries; values can stand above or below the compound they belong to.
Columns and labels:
Assay in all cases: Competitive isoTOP-ABPP, cell lysates
Format in all cases: binding
[1] = target: T1, ACAT1 C413 (P24752) (Homo sapiens, UniProt P24752); settings: for isoTOP-ABPP ratio P24752_C413: invitro
T1 sequence (P24752 34-427): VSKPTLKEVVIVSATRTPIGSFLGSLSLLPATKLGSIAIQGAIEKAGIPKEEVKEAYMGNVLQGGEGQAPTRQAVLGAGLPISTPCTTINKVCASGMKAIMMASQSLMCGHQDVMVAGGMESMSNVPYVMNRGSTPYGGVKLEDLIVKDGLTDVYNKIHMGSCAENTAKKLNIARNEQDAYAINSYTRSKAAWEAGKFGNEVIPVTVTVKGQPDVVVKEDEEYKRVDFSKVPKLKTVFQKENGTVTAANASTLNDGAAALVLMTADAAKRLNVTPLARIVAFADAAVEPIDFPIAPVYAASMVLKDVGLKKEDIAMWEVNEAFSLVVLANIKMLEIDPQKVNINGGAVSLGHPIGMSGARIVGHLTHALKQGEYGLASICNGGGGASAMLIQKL

[2] = target: T2, DDX59 C414 (Q5T1V6) (Homo sapiens, UniProt Q5T1V6); settings: for R value (DMSO/fragment): 500 μM
T2 sequence (Q5T1V6 1-619): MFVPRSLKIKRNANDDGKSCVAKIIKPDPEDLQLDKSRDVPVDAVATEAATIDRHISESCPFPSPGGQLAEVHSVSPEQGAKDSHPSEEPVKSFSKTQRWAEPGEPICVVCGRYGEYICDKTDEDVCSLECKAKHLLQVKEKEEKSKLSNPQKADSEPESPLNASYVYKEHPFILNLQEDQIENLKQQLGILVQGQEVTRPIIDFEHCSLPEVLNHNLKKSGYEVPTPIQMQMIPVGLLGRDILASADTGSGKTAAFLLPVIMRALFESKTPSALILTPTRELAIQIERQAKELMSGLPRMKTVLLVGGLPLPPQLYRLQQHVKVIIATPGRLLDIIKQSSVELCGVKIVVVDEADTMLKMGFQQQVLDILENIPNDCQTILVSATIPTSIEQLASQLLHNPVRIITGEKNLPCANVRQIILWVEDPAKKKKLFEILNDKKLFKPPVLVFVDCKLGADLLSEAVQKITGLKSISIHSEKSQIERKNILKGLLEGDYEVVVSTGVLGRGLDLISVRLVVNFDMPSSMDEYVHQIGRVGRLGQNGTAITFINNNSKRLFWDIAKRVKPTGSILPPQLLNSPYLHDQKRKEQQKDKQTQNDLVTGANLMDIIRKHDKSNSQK

[3] = target: RRAGC C377 (Q9HB90) (Homo sapiens, UniProt Q9HB90)
[4] = target: USP16 C205 (Q9Y5T5) (Homo sapiens, UniProt Q9Y5T5); settings: for isoTOP-ABPP ratio, Q9Y5T5_C205: invitro
[5] = target: LRBA C1704 (P50851) (Homo sapiens, UniProt P50851)
[6] = target: LRBA C2675 (P50851) (Homo sapiens, UniProt P50851)
[7] = target: PFKFB4 C159 (Q16877) (Homo sapiens, UniProt Q16877); settings: for isoTOP-ABPP ratio, Q16877_C159: 500 μM, invitro
PFKFB4 C159 (Q16877), sequence (Q16877 whole entry): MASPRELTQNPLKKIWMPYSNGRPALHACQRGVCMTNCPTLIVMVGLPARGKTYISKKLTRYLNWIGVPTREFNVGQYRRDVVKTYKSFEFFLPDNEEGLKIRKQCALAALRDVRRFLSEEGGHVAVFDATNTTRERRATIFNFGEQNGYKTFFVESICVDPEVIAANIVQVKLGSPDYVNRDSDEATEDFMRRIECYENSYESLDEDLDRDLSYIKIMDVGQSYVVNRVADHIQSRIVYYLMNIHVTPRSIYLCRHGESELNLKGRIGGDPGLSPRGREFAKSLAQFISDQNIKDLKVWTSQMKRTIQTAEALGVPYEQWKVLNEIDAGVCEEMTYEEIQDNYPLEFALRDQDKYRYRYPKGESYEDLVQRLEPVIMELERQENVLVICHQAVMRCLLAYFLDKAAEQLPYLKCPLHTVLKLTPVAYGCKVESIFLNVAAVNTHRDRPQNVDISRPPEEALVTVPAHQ

RRAGC C377 (Q9HB90), sequence (Q9HB90 2-399 limits assumed): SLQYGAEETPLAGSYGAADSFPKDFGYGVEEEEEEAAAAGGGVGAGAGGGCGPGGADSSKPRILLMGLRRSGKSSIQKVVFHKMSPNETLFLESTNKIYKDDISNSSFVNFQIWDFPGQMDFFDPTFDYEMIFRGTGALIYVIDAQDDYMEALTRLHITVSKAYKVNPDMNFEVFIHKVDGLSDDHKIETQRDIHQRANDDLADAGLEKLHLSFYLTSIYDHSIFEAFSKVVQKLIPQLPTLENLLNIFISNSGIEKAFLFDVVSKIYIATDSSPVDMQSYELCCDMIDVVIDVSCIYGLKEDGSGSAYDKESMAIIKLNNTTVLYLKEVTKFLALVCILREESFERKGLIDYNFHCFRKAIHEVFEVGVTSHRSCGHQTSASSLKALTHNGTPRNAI
RRAGC C377 (Q9HB90), sequence (Q7L523 whole entry partner): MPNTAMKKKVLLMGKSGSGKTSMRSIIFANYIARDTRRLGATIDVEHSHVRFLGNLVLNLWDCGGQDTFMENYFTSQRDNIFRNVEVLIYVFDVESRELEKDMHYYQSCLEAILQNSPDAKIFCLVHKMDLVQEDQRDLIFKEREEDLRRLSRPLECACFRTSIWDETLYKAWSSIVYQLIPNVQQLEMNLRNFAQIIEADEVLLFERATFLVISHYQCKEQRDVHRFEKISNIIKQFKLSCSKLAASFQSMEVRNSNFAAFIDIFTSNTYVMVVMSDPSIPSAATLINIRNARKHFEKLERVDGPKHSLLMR
LRBA C1704 (P50851), sequence (P50851 whole entry): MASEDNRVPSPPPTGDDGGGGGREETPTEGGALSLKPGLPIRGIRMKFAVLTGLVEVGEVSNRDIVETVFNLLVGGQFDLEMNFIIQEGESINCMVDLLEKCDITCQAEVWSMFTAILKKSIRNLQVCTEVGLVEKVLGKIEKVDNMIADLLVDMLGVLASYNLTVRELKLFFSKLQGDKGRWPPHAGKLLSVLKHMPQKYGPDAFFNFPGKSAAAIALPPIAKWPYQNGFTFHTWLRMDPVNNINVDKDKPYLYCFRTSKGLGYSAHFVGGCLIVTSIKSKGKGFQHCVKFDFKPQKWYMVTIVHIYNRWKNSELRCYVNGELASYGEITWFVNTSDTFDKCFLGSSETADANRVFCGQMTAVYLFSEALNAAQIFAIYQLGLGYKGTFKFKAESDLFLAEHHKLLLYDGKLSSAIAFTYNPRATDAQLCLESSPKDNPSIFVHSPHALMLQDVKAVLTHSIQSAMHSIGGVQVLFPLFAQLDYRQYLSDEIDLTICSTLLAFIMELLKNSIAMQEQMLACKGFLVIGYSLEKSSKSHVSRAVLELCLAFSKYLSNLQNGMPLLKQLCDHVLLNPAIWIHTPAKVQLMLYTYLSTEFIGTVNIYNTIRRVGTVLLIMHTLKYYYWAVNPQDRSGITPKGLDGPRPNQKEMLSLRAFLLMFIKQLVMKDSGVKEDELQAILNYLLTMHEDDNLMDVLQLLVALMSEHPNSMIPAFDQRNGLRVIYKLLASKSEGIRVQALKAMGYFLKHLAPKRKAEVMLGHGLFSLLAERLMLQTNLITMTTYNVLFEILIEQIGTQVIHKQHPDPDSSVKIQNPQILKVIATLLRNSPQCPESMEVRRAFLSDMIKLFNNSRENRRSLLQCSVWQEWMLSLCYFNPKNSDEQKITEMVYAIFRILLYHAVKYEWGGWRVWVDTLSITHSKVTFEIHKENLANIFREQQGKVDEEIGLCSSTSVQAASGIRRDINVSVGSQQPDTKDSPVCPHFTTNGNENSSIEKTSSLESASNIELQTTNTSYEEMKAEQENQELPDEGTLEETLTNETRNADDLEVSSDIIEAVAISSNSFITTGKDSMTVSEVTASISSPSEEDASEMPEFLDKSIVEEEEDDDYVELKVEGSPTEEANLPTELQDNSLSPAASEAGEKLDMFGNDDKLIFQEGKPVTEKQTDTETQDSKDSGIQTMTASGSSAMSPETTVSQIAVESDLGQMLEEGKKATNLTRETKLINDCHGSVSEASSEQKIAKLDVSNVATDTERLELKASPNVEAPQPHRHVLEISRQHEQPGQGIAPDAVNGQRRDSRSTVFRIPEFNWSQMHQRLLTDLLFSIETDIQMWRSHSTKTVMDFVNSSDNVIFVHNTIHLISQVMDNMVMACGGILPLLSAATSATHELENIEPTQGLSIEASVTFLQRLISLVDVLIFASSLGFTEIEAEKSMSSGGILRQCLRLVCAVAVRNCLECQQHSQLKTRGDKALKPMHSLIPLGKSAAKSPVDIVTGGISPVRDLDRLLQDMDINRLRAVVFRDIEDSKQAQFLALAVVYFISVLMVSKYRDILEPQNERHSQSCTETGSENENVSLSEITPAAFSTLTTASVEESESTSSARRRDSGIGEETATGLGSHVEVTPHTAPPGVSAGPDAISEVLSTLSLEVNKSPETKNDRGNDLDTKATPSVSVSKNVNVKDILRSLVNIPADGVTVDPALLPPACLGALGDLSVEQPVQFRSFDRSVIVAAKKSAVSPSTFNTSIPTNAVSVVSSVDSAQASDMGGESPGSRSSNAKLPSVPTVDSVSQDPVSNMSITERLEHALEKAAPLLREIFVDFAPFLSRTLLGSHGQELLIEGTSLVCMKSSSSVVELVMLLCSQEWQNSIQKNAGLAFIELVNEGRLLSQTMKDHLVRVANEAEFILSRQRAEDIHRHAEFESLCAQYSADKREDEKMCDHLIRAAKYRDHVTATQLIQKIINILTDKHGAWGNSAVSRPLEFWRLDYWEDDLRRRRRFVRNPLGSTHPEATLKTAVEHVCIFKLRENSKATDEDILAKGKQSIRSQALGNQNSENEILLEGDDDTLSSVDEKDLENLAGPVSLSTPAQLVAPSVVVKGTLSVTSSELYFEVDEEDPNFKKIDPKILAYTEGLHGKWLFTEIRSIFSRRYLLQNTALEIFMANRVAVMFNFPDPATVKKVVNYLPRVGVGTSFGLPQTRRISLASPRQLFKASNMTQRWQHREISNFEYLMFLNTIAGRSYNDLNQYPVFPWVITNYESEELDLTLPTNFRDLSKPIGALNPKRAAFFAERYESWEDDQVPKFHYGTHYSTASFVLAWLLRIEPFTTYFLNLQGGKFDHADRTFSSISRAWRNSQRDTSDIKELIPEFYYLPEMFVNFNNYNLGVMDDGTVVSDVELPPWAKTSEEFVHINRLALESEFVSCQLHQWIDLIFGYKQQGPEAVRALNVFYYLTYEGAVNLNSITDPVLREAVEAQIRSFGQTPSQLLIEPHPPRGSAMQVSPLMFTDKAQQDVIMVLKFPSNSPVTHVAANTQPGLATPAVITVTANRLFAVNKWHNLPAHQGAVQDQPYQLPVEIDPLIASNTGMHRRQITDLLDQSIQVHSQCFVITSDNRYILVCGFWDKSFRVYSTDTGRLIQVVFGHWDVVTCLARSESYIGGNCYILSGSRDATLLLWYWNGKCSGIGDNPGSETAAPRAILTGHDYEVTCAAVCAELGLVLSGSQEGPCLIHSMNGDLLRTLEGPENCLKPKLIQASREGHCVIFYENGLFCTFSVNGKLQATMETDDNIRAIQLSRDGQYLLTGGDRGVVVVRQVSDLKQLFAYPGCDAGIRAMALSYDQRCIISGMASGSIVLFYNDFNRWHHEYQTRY
LRBA C2675 (P50851), sequence (P50851 whole entry): as above
USP16 C205 (Q9Y5T5), sequence (Q9Y5T5 whole entry): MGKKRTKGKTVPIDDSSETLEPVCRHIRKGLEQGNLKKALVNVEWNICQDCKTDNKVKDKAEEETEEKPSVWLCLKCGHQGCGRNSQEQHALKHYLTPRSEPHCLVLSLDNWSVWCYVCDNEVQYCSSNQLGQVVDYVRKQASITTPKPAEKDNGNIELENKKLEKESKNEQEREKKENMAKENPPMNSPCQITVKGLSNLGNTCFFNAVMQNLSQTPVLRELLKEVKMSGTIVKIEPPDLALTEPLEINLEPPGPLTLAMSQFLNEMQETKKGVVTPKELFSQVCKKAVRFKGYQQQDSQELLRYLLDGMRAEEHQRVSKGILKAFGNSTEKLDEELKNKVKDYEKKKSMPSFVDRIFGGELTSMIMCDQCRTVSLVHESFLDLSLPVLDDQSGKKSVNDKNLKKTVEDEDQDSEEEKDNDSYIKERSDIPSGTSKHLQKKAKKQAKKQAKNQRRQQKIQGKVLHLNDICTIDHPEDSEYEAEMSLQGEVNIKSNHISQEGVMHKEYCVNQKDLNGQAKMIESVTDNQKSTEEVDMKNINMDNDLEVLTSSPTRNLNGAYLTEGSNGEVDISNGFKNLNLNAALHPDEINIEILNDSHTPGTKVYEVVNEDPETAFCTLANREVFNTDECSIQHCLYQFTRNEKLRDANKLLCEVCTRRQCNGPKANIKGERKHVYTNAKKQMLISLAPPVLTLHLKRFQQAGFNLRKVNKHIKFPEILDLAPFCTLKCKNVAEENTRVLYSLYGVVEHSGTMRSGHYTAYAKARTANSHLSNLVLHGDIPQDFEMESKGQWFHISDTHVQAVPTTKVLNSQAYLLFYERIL

isoTOP-ABPP reactivity profile ratio, P24752_C413 ([1]; 500 μm, in-vitro_ramos_231): 0.8 | isoTOP-ABPP reactivity profile ratio, Q5T1V6_C414 ([2]; 500 μm, in-vitro_ramos_231): 0.8 | isoTOP-ABPP reactivity profile ratio, Q9HB90_C377 ([3]; 500 μm, in-vitro_ramos_231): 0.7
SMILES: O=C(CCl)NC1C(O)OC(CO)C(O)C1O (mixture of isomers) [compound 44]

isoTOP-ABPP ratio P24752_C413 ([1]; 500 μM, 231): 1.1
SMILES: CNS(=O)(=O)C=Cc1ccc2c(ccn2Cc2ccccc2)c1 [compound 6]

isoTOP-ABPP ratio P24752_C413 ([1]; 500 μM, 231): 1.2 | isoTOP-ABPP ratio (reactivity profile), P24752_C413 ([1]; 500 μm in-vitro ramos): 0.9 | isoTOP-ABPP ratio (reactivity profile), Q5T1V6_C414 ([2]; 500 μm in-vitro ramos): 1.0 | isoTOP-ABPP ratio (reactivity profile), P50851_C1704 ([5]; 500 μm in-vitro ramos): 1.9 | isoTOP-ABPP ratio (reactivity profile), P50851_C2675 ([6]; 500 μm in-vitro ramos): 1.6
SMILES: C=CC(=O)N(Cc1cccnc1)c1ccc(Oc2ccccc2)c(C(F)(F)F)c1 [compound 15]

isoTOP-ABPP ratio (reactivity profile), P24752_C413 ([1]; 500 μm in-vitro ramos_231): 1.0 | isoTOP-ABPP ratio (reactivity profile), Q9HB90_C377 ([3]; 500 μm in-vitro ramos_231): 1.0 | isoTOP-ABPP ratio (reactivity profile), P50851_C1704 ([5]; 500 μm in-vitro ramos_231): 0.8
SMILES: CC(Cl)C(=O)Nc1cc(C(F)(F)F)cc(C(F)(F)F)c1 (stereo not shown) [compound 25]

isoTOP-ABPP ratio (reactivity profile), P24752_C413 ([1]; 500 μm in-vitro ramos): 0.9 | isoTOP-ABPP ratio (reactivity profile), P50851_C2675 ([6]; 500 μm in-vitro ramos): 0.9
SMILES: O=C(/C=C/c1ccccc1)Nc1cc(C(F)(F)F)cc(C(F)(F)F)c1 [compound 26]

isoTOP-ABPP ratio (reactivity profile), P24752_C413 ([1]; 500 μm in-vitro ramos): 1.3 | isoTOP-ABPP ratio (reactivity profile), P24752_C413 ([1]; 500 μm in-vitro ramos_231): 0.9 and 1.1 | isoTOP-ABPP ratio (reactivity profile), Q9Y5T5_C205 ([4]; 500 μm in-vitro ramos): 0.9 | isoTOP-ABPP ratio (reactivity profile), Q9Y5T5_C205 ([4]; 500 μm in-vitro ramos_231): 1.6 | isoTOP-ABPP ratio (reactivity profile), Q5T1V6_C414 ([2]; 500 μm in-vitro ramos): 1.0 | isoTOP-ABPP ratio (reactivity profile), Q5T1V6_C414 ([2]; 500 μm in-vitro ramos_231): 0.8 | isoTOP-ABPP ratio (reactivity profile), Q9HB90_C377 ([3]; 500 μm in-vitro ramos_231): 1.0 | isoTOP-ABPP ratio (reactivity profile), P50851_C1704 ([5]; 500 μm in-vitro ramos_231): 1.1
SMILES: CC(C)CCOCCNC(=O)CCl [compound 27]

isoTOP-ABPP ratio (reactivity profile), P24752_C413 ([1]; 500 μm in-vitro ramos): 1.4 | isoTOP-ABPP ratio (reactivity profile), P24752_C413 ([1]; 500 μm in-vitro ramos_231): 1.2 | isoTOP-ABPP ratio (reactivity profile), Q9Y5T5_C205 ([4]; 500 μm in-vitro ramos): 1.6 | isoTOP-ABPP ratio (reactivity profile), Q9HB90_C377 ([3]; 500 μm in-vitro ramos_231): 1.3
SMILES: COc1ccccc1OCCNC(=O)CCl [compound 28]

The next lines start with the compound.

SMILES: COc1ccc2c(c1)CCCN2C(=O)CCl [compound 2]
R value (DMSO/fragment) ([1]; 500 μM, in vitro, MDA-MB-231): 18.1 | R value (DMSO/fragment) ([4]; 500 μM, in vitro, MDA-MB-231): 20.0 | R value (DMSO/fragment) ([2]; in vitro, MDA-MB-231): 20.0 | R value (DMSO/fragment) ([2]; invitro, ramos): 20.0 | R value (DMSO/fragment) ([3]; 500 μM, in vitro, MDA-MB-231): 20.0 | R value (DMSO/fragment) ([5]; 500 μM, invitro, ramos): 3.4 | R value (DMSO/fragment) ([6]; 500 μM, invitro, ramos): 3.0

SMILES: C=CC(=O)N(c1ccccc1)c1ccc(Br)cc1 [compound 5]
isoTOP-ABPP ratio P24752_C413 ([1]; 500 μM, 231): 1.3 | isoTOP-ABPP ratio, Q9Y5T5_C205 ([4]; 500 μM, ramos): 1.1 | isoTOP-ABPP ratio, Q16877_C159 ([7]; ramos): 20.0 | isoTOP-ABPP ratio, P50851_C1704 ([5]; 500 μM, invitro, ramos): 3.6 | isoTOP-ABPP ratio, P50851_C2675 ([6]; 500 μM, invitro, ramos): 20.0

SMILES: O=C(CCl)N1CCN(S(=O)(=O)c2ccccc2F)CC1 [compound 10]
isoTOP-ABPP ratio P24752_C413 ([1]; 500 μM, 231): 13.0 | isoTOP-ABPP ratio P24752_C413 ([1]; 500 μM, ramos): 1.6 | isoTOP-ABPP ratio, Q16877_C159 [7]; 231: 1.2 | isoTOP-ABPP ratio, P50851_C1704 ([5]; 500 μM, invitro, ramos): 0.8 | isoTOP-ABPP ratio, P50851_C2675 ([6]; 500 μM, invitro, ramos): 1.3

SMILES: O=C(CCl)NC(=O)NC12CC3CC(CC(C3)C1)C2 [compound 12]
isoTOP-ABPP ratio P24752_C413 ([1]; 500 μM, 231): 1.5 | isoTOP-ABPP ratio P24752_C413 ([1]; 500 μM, ramos): 1.1 | isoTOP-ABPP ratio, Q9Y5T5_C205 ([4]; 500 μM, 231): 2.2 | isoTOP-ABPP ratio, P50851_C2675 ([6]; 500 μM, invitro, ramos): 1.5

SMILES: O=C(CCl)N1CCC(C(O)(c2ccccc2)c2ccccc2)CC1 [compound 20]
isoTOP-ABPP ratio (reactivity profile), P24752_C413 ([1]; 500 μm in-vitro ramos): 14.0 | isoTOP-ABPP ratio (reactivity profile), P24752_C413 ([1]; 500 μm in-vitro ramos_231): 20.0 | isoTOP-ABPP ratio (reactivity profile), Q5T1V6_C414 ([2]; 500 μm in-vitro ramos): 3.1 | isoTOP-ABPP ratio (reactivity profile), Q16877_C159 ([7]; 500 μm in-vitro ramos): 1.0 | isoTOP-ABPP ratio (reactivity profile), P50851_C1704 ([5]; 500 μm in-vitro ramos): 1.7 | isoTOP-ABPP ratio (reactivity profile), P50851_C1704 ([5]; 500 μm in-vitro ramos_231): 2.0

SMILES: O=C(CCl)N1CCOCC1 [compound 22]
isoTOP-ABPP ratio (reactivity profile), P24752_C413 ([1]; 500 μm in-vitro ramos): 1.1 | isoTOP-ABPP ratio (reactivity profile), P24752_C413 ([1]; 500 μm in-vitro ramos_231): 1.1 | isoTOP-ABPP ratio (reactivity profile), Q9Y5T5_C205 ([4]; 500 μm in-vitro ramos): 1.6 | isoTOP-ABPP ratio (reactivity profile), Q5T1V6_C414 ([2]; 500 μm in-vitro ramos): 1.3 | isoTOP-ABPP ratio (reactivity profile), Q9HB90_C377 ([3]; 500 μm in-vitro ramos): 0.9 | isoTOP-ABPP ratio (reactivity profile), Q9HB90_C377 ([3]; 500 μm in-vitro ramos_231): 1.7 | isoTOP-ABPP ratio (reactivity profile), P50851_C2675 ([6]; 500 μm in-vitro ramos): 1.1 | isoTOP-ABPP ratio (reactivity profile), P50851_C2675 ([6]; 500 μm in-vitro ramos_231): 1.1

SMILES: CC(Br)C(=O)Nc1cc(C(F)(F)F)cc(C(F)(F)F)c1 (stereo not shown) [compound 24]
isoTOP-ABPP ratio (reactivity profile), P24752_C413 ([1]; 500 μm in-vitro ramos): 1.2 | isoTOP-ABPP ratio (reactivity profile), Q5T1V6_C414 ([2]; 500 μm in-vitro ramos): 1.7 | isoTOP-ABPP ratio (reactivity profile), Q9HB90_C377 ([3]; 500 μm in-vitro ramos): 1.5 | isoTOP-ABPP ratio (reactivity profile), P50851_C1704 ([5]; 500 μm in-vitro ramos): 1.3 | isoTOP-ABPP ratio (reactivity profile), P50851_C2675 ([6]; 500 μm in-vitro ramos): 1.0

SMILES: O=C(CCl)N1CCN(CC(=O)N2CCOCC2)CC1 [compound 29]
isoTOP-ABPP ratio (reactivity profile), P24752_C413 ([1]; 500 μm in-vitro ramos): 0.7 | isoTOP-ABPP ratio (reactivity profile), P24752_C413 ([1]; 500 μm in-vitro ramos_231): 1.3 | isoTOP-ABPP ratio (reactivity profile), Q9HB90_C377 ([3]; 500 μm in-vitro ramos_231): 1.3 | isoTOP-ABPP ratio (reactivity profile), P50851_C2675 ([6]; 500 μm in-vitro ramos_231): 1.1

Source: US10670605B2, “Cysteine reactive probes and uses thereof” (The Scripps Research Institute, priority 2015, dated 2020)
